The nature of assay [1]: Selectivity ratio IC50 for human RCC4/VHL cells to IC50 for human RCC4 cells. Type of assay: functional.
The nature of assay [2]: Growth inhibition of human RCC4 cells after 4 days by XTT assay. Particulars: RCC4, 96 h. Type of assay: functional, cell-based. A general note: Tetrazolium dyes change colour on reduction, which living cells bring about.
The test system of assay [3] is RCC4. Kind of assay: Induction of autophagy in human RCC4 cells assessed as formation of intracytoplasmic vacuoles at 5 uM after 24 hrs by phase contrast microscopy. Type of assay: functional, cell-based.
Assay [4] can be described thus: Growth inhibition of human RCC4/VHL cells after 4 days by XTT assay. Type of assay: functional, cell-based. Particulars: 96 h.

The source made the active and inactive calls. The rule behind the calls is not given here.

`Cc1cccc(Nc2nc(-c3ccncc3C#CCN3CCOCC3)cs2)c1`: in assay [1], the “Ratio IC50” value was determined as 4. The IC50 in assay [2] (read-out: IC50) was 0.57 µM; in assay [2] (read-out: pIC50 (converted)) it was 0.575 µM; in assay [4], 2.3 µM. Further, the outcome in assay [3] was Active.
For `Cc1cccc(Nc2nc(-c3ccncc3OCCCN(C)C)cs2)c1` the same measures were 7.4, 2.7 µM, 2.75 µM, 20.2 µM and “Active”.
As to `Cc1cccc(Nc2nc(-c3cc(-c4ccccc4)nc4ccccc34)cs2)c1`, the “Ratio IC50” value in assay [1] is given as greater than 1.6. The IC50 in assay [2] (read-out: IC50) is 25.4 µM; in assay [2] (read-out: pIC50 (converted)), 25.7 µM; in assay [4], greater than 40 µM.
Take `CC(=O)c1ccc(-c2cc(-c3csc(Nc4cccc(C)c4)n3)ccn2)cc1`: the “Ratio IC50” value in assay [1] was determined as 0.9. Further, the IC50 in assay [2] (read-out: IC50) was 38.8 µM; in assay [2] (read-out: pIC50 (converted)), 38.9 µM; in assay [4], 33.4 µM.
For `Cc1cccc(Nc2nc(-c3ccnc(-c4cncnc4)c3)cs2)c1` the same measures were 1.4, 26.4 µM, 26.9 µM and 37 µM.
`Cc1cccc(Nc2nc(-c3ccnc(-c4c(C)noc4C)c3)cs2)c1`: the “Ratio IC50” value in assay [1] was 12. Further, the IC50 in assay [2] (read-out: IC50) was 3 µM; in assay [2] (read-out: pIC50 (converted)), 3.02 µM; in assay [4], 36.5 µM.
Taken in the same sequence, the figures for `Cc1cccc(Nc2cc(-c3ccncc3)ncn2)c1` were 1.2, 23.1 µM, 23.4 µM and 28.1 µM.
For `Cc1cccc(Nc2nc(-c3c(C)nc4ccccn34)cs2)c1` the same measures were 3.1, 9.5 µM, 9.55 µM and 29.8 µM.
Take `Cc1cccc(Nc2nc(-c3ccnc(OCCCN(C)C)c3)cs2)c1`: the “Ratio IC50” value in assay [1] is 1.5. For the same compound, the IC50 in assay [2] (read-out: IC50) is 6 µM; in assay [2] (read-out: pIC50 (converted)) it was 6.03 µM; in assay [4], 8.8 µM.
On to `Cc1cccc(Nc2nc(-c3ccncc3OCCN3CCOCC3)cs2)c1`, for which the “Ratio IC50” value in assay [1] was determined as 2.8. Also, the IC50 is 0.32 µM in assay [2] (read-out: IC50), 0.324 µM in assay [2] (read-out: pIC50 (converted)) and 0.88 µM in assay [4].
Consider `Cc1cccc(Nc2nc(-c3ccncc3-c3ccc(C(=O)N4CCN(C)CC4)cc3)cs2)c1`, for which the “Ratio IC50” value in assay [1] is greater than 3.1. Moreover, the results for the IC50 in assay [2] (read-out: IC50), in assay [2] (read-out: pIC50 (converted)) and in assay [4] were 12.8 µM, 12.9 µM and greater than 40 µM, respectively.
Taken in the same sequence, the figures for `Cc1cccc(Nc2nc(-c3ccnc(NCCN4CCOCC4)c3)cs2)c1` were 2.2, 3.7 µM, 3.72 µM and 8 µM.
In the case of `Cc1cccc(Nc2nc(-c3ccnc4ccccc34)cs2)c1`, the “Ratio IC50” value in assay [1] worked out at 1.6. The IC50 in assay [2] (read-out: IC50) is 12.3 µM; in assay [2] (read-out: pIC50 (converted)) it was 12.3 µM; in assay [4], 20 µM.
For the compound `Cc1cccc(Nc2nc(-c3ccncc3-c3ccc(S(C)(=O)=O)cc3)cs2)c1`, in assay [1], the “Ratio IC50” value amounted to 8.4. Also, the IC50 was 1.6 µM in assay [2] (read-out: IC50), 1.62 µM in assay [2] (read-out: pIC50 (converted)) and 13.4 µM in assay [4].
Taken in the same sequence, the figures for `Cc1cccc(Nc2nc(-c3ccncc3-c3ccc(C(F)(F)F)cc3)cs2)c1` were 1.8, 12.8 µM, 12.9 µM and 22.6 µM.
For `Cc1cccc(Nc2nc(-c3ccnc(-c4ccccc4)c3)cs2)c1` the same measures were 2.1, 19.1 µM, 19.5 µM and 40 µM.
Regarding `Cc1cccc(Nc2nc(-c3ccnc(-c4cc[nH]n4)c3)cs2)c1`, the IC50 in assay [2] (read-out: IC50) was 0.48 µM; in assay [2] (read-out: pIC50 (converted)), 0.49 µM; in assay [4], 20 µM. The outcome in assay [3] was Active.
As for `Cc1cccc(Nc2nc(-c3ccncc3)ns2)c1`, the “Ratio IC50” value in assay [1] was greater than 1.6. Moreover, the results for the IC50 in assay [2] (read-out: IC50), in assay [2] (read-out: pIC50 (converted)) and in assay [4] were 24.8 µM, 25.1 µM and greater than 40 µM, respectively.
For `Cc1cccc(Nc2nc(-c3ccnc(-c4ccsc4)c3)cs2)c1` the same measures were greater than 4.6, 8.7 µM, 8.71 µM and greater than 40 µM.
Taken in the same sequence, the figures for `Cc1cccc(Nc2nc(-c3ccncc3)n[nH]2)c1` were 0.8, 28.7 µM, 28.8 µM and 22.2 µM.
For `Cc1cccc(Nc2nc(-c3cnn4ccccc34)cs2)c1` the same measures were less than 0.4, greater than 40 µM, 40.7 µM and 15.3 µM.
On to `Cc1cccc(Nc2nc(-c3ccnc(-c4cnn(Cc5ccccc5)c4)c3)cs2)c1`, for which, in assay [1], the “Ratio IC50” value worked out at 30. Also, the IC50 in assay [2] (read-out: IC50) was 2.2 µM; in assay [2] (read-out: pIC50 (converted)), 2.24 µM; in assay [4], 66.1 µM. In assay [3], the result was Active.
As to `Cc1cccc(Nc2nc(-c3ccnc(-c4ccncc4)c3)cs2)c1`, the “Ratio IC50” value in assay [1] stood at 1.3. Besides, the IC50 in assay [2] (read-out: IC50) is 28.9 µM; in assay [2] (read-out: pIC50 (converted)), 29.5 µM; in assay [4] it was 38 µM.
Consider `Cc1cccc(Nc2nc(-c3ccncc3)cs2)c1`, for which, in assay [1], the “Ratio IC50” value amounted to 19. For the same compound, the IC50 in assay [2] (read-out: IC50) is 2.1 µM; in assay [2] (read-out: pIC50 (converted)), 2.14 µM; in assay [4], 40 µM. In addition, the outcome in assay [3] was Active.
As to `Cc1cccc(Nc2nc(-c3ccnc(OCCN4CCOCC4)c3)cs2)c1`, the “Ratio IC50” value in assay [1] amounted to 3. For the same compound, the IC50 in assay [2] (read-out: IC50) was 7 µM; in assay [2] (read-out: pIC50 (converted)), 7.08 µM; in assay [4], 21.1 µM.
In the case of `Cc1cccc(Nc2nc(-c3ccncc3-c3ccc(C(=O)NCCCN(C)C)cc3)cs2)c1`, the “Ratio IC50” value in assay [1] turned out to be 1. In addition, the IC50 in assay [2] (read-out: IC50) is 4 µM; in assay [2] (read-out: pIC50 (converted)) it was 4.07 µM; in assay [4], 3.9 µM.

Values taken from ChEMBL document CHEMBL1817609, “SAR studies of 4-pyridyl heterocyclic anilines that selectively induce autophagic cell death in von Hippel-Lindau-deficient renal cell carcinoma cells” (Bioorg Med Chem, 2011).
